Test results published in patent US20030191187A1, “Injectable pharmaceutical composition containing a non-steroidal anti-inflammatory drug and method for preparing the same” (priority 2002, published 2003).
Where two headings read alike, the source gives them in different places. One block for each compound: values may come before it.

How the values were obtained:
[1] = behaviour of ketorolac tromethamine solutions outside pH 6.0-8.5; format: physicochemical
Text: In the present invention, a stable and injectable pharmaceutical composition which contains an acetic acid class of NSAID is described. The pH value of the injectable pharmaceutical composition is maintained at 6.0-8.5, preferably 6.9-7.9. When the pH values of the ketorolac tromethamine solutions are lower than 6, the NSAID precipitates from the solutions.
(4). Measure the pH of the solution in (3). If the pH is below 6.0, add an appropriate amount of the alkaline agent as described in (A) of the above “pH-adjusting agent” to the solution. If the pH is above 8.5, add an appropriate amount of the acidic agent as described in (B) of the above “pH-adjusting agent” to the solution. Cloudiness is observed when the pH of the solution is below 6. The solution will become clear after the pH adjustment to between 6.0-8.5.

[2] = cited from earlier work
[3] = white to off-white crystalline substance; cited from earlier work
[4] = cited from earlier work; remark: listed apart in the source
[5] = cited from earlier work; remark: listed apart in the source
plasma protein = settings: once in the circulation; cited from earlier work
[6] = cited from earlier work; remark: listed apart in the source

- behaviour of solution ([1]; pH higher than 8.5): color of the solutions changes
- behaviour of solution ([1]; pH lower than 6): precipitates
Structure (SMILES): NC(CO)(CO)CO.O=C(c1ccccc1)c1ccc2n1CCC2C(=O)O (stereo not shown) [ketorolac tromethamine]
- pKa [2]: 3.5
- behaviour under prolonged exposure to light [3]: discolors
- water solubility [4]: enhanced
- terminal elimination half-life ([5]; geriatric patients): 4.7 to 8.6 h
- terminal elimination half-life ([5]; young adults): 3.8 to 6.3 h
- plasma protein bound (plasma protein): 99%
- onset of the anti-inflammatory, analgesic, and antipyretic effects ([6]; after the intramuscular administration): 30 to 60 min
- time to maximum effect ([6]; after the intravenous or intramuscular administrations): 1 to 2 h
- duration of therapeutic effects ([6]; in vivo): 4 to 6 h

Structure (SMILES): O=C(c1ccccc1)c1ccc2n1CCC2C(=O)O (racemic) [ketorolac, (±)-5-benzoyl-2,3-dihydro-1H-pyrrolizine-1-carboxylic acid]
- water solubility [4]: low
- time at which serum concentration reaches a peak ([5]; route not given): about 2.9±1.8 minutes
